According to paper PMC9229294, “Pyridazinones and Structurally Related Derivatives with Anti-Inflammatory Activity” (Molecules, 2022):

Columns and labels:
[1] = Cytotoxicity, CellTiter-Glo, THP1-Blue cells; format: cell-based, human; conditions: human, THP1-Blue cells
Description: (§1) Our studies included 175 compounds that were previously synthesized and characterized at NEUROFARBA, Pharmaceutical and Nutraceutical Section, University of Florence, Italy. We previously evaluated the FPR1/FPR2 agonist activity of these compounds by evaluating their ability to induce Ca^2+ mobilization in FPR-transfected HL60 cells and human neutrophils. […] All test compounds were dissolved in DMSO at stock concentrations of 10 mM and stored at −20 °C. For primary screening assays (analysis of NF-κB activation, IL-6 production, and cytotoxicity), the following final concentrations of the compounds were used: 3.125, 6.25, 12.5, 25, and 50 µM; the final concentration of DMSO was 1% in all samples.
(§2) The cytotoxicity was analyzed with a CellTiter-Glo Luminescent Cell Viability Assay Kit from Promega (Madison, WI, USA), according to the manufacturer’s protocol. The luminescent ATP assays are based on a luciferase enzymatic reaction which uses ATP from viable cells to generate photons. For this assay, the cells were incubated with the compounds under investigation for 24 h. After treatment, the cells were equilibrated to room temperature for 30 min, luciferase + luciferin substrate was added, and the samples were analyzed with a Fluoroscan Ascent FL (Thermo Fisher Scientific, Waltham, MA, USA). The IC50 values were calculated by plotting the percentage inhibition against the logarithm of the inhibitor concentration (at least five points).

[2] = test system: LPS-induced NF-κB activity in THP1-Blue cells; experiment: Inhibition of LPS-induced NF-κB transcriptional activity, alkaline phosphatase reporter, THP1-Blue cells; format: cell-based, human; conditions: for IC50: LPS-induced NF-κB activity, human THP1-Blue cells, N.A. = no activity at 50 µM; for Inhibition of LPS-induced NF-κB activity (in words): THP1-Blue cells; for Observed class for inhibition of NF-κB activity: experimentally observed, Active or N.A.
Description: as §1
The activation of NF-κB was measured using an alkaline phosphatase reporter assay in human monocytic THP1-Blue cells stably transfected with a secreted embryonic alkaline phosphatase gene that is under the control of a promoter inducible by the NF-κB. The THP1-Blue cells (2 × 10^5 cells/well) were pretreated with the test compound or DMSO for 30 min, followed by an addition of 250 ng/mL LPS for 24 h. Alkaline phosphatase activity was determined in cell supernatants using a QUANTI-Blue mix (InvivoGen) and measured at 655 nm and compared with positive control samples (LPS).

[3] = test system: LPS-induced IL-6 production in MonoMac-6 cells; experiment: Inhibition of LPS-induced IL-6 production in MonoMac-6 cells (ELISA); format: cell-based, human; conditions: for IC50: Homo sapiens, MONO-MAC-6, read-out: Inhibition of IL-6 Production IC50 in MonoMac-6 Cells; for Inhibition of LPS-induced IL-6 production (in words): MonoMac-6 cells, 250 ng/mL LPS, 24 h
Description: as §1
A human IL-6 ELISA kit (BD Biosciences, San Jose, CA, USA) was used to measure IL-6 production. […] The cells were pretreated with the test compound or DMSO for 30 min, followed by addition of 250 ng/mL LPS for 24 h. The IC50 values for IL-6 production were calculated by plotting the percentage inhibition against the logarithm of the inhibitor concentration (at least five points).

[4] = Cytotoxicity, CellTiter-Glo, MonoMac-6 cells; format: cell-based, human; conditions: human, MonoMac-6 cells
Description: as §1, §2

FPR2 = biological target: T1, FPR2 (Homo sapiens, UniProt P25090); conditions: FPR2-transfected HL-60 cells; agonist activity from Table 1; read-out: Ca2+ Mobilization FPR2 EC50 in HL-60 Cells; cited from earlier work
T1 construct: expressed in transfected cells; host or cells: HL-60 cells (FPR2-HL60)
T1 sequence (P25090 1-351): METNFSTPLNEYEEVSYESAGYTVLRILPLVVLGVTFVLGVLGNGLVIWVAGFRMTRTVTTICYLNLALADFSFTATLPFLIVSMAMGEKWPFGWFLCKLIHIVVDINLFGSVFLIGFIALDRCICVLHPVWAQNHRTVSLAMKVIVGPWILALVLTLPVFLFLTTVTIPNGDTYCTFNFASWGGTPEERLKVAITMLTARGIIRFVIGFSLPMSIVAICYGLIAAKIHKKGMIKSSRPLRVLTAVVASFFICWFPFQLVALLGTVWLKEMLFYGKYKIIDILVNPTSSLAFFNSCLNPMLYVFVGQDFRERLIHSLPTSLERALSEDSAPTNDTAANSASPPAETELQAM

FPR1 = biological target: T2, FPR1 (Homo sapiens, UniProt P21462); conditions: FPR1-transfected HL-60 cells; agonist activity from Table 1; read-out: Ca2+ Mobilization FPR1 EC50 in HL-60 Cells; cited from earlier work
T2 construct: expressed in transfected cells; host or cells: HL-60 cells (FPR1-HL60)
T2 sequence (P21462 1-350): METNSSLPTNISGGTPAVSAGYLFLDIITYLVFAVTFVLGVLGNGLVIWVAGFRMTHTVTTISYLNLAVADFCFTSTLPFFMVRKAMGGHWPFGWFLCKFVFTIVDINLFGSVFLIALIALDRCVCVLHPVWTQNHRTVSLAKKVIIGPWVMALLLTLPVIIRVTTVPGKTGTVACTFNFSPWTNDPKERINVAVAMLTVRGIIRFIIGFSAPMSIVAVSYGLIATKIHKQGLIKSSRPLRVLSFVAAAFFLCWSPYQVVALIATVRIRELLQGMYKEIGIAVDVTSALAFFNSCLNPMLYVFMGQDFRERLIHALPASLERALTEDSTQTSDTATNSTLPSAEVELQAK

[5] = N.T. = no cytotoxicity at 50 µM, read-out: Cytotoxicity IC50 in THP1-Blue Cells

IC50 ([2]; Homo sapiens) [µM]	Compound	IC50 at 24 h [1, 5] [µM]	Observed class for inhibition of NF-κB activity [2]	EC50 (FPR2) [µM]	EC50 (FPR1) [µM]	further results
	CC(C)c1c(NC(=O)Nc2ccc(Cl)cc2)c(=O)n(-c2ccccc2)n1C [Cmpd43, N-(4-chlorophenyl)-N′-(5-isopropyl-1-methyl-3-oxo-2-phenyl-2,3-dihydro-1H-pyrazol-4-yl)urea, reference compound]	> 50				IC50 [2]: > 50 µM; Inhibition of LPS-induced NF-κB activity (in words) ([2]; 250 ng/mL LPS, 24 h): did not inhibit
	COc1cccc(Cc2cc(C)nn(CC(=O)Nc3ccc(Br)cc3)c2=O)c1 [Compound 1]					Inhibition of LPS-induced NF-κB activity (in words) ([2]; 250 ng/mL LPS, 24 h): inactive
44.5 ± 2.5	COc1cccc(Cc2cc(C)nn(CC(=O)Nc3cccc(Br)c3)c2=O)c1 [Compound 2]	> 50	Active			IC50 [3]: 30.7 ± 3.6 µM; Inhibition of LPS-induced IL-6 production (in words) [3]: inhibitors of IL-6 production; IC50 at 24 h [4]: > 50 µM
46.1 ± 1	COc1cccc(Cc2cc(C)nn(CC(=O)Nc3ccc([N+](=O)[O-])cc3)c2=O)c1 [Compound 5]	> 50	Active			
22 ± 1.7	COc1cccc(Cc2cc(C(C)C)nn(CC(=O)Nc3ccc(Br)cc3)c2=O)c1 [Compound 10]	> 50	Active			IC50 [3]: 8.7 ± 1.6 µM; IC50 at 24 h [4]: > 50 µM
33.6 ± 2.1	COc1cccc(Cc2cc(C)nn(CC(=O)Nc3ccc(F)cc3)c2=O)c1 [Compound 15]	> 50	Active			
	COc1ccc(-c2cc(C)nn(CC(=O)Nc3ccc(Br)cc3)c2=O)cc1 [Compound 19]					Inhibition of LPS-induced NF-κB activity (in words) ([2]; 250 ng/mL LPS, 24 h): inactive
7.1 ± 2	Cc1cc(Cc2cccc(Cl)c2)c(=O)n(CC(=O)Nc2ccc(I)cc2)n1 [Compound 23]	> 50	Active			IC50 [3]: 13.1 ± 0.3 µM; IC50 at 24 h [4]: > 50 µM
28.4 ± 5.7	Cc1cc(Cc2ccccc2)c(=O)n(CC(=O)Nc2ccc(Br)cc2)n1 [Compound 30]	> 50	Active			
34.5 ± 2.1	COc1ccc(Cc2cc(-c3ccc(F)cc3)nn(CC(=O)Nc3ccc(Br)cc3)c2=O)cc1 [Compound 49]	> 50	Active	> 50	> 50	
32.8 ± 0.7	COc1ccc(N(c2ccc(OC)cc2)c2cc(C)nn(CC(=O)Nc3ccc(Br)cc3)c2=O)cc1 [Compound 50]	> 50	Active	> 50	> 50	
27.9 ± 2.1	Cc1cc(Cc2cccc(F)c2)c(=O)n(CC(=O)Nc2ccc(Br)cc2)n1 [Compound 64]	> 50	Active			
31.5 ± 2.2	Cc1cc(Cc2ccc(C(F)(F)F)cc2)c(=O)n(CC(=O)Nc2ccc(Br)cc2)n1 [Compound 66]	26.4 ± 4.7	Active	> 50	> 50	IC50 at 24 h ([1]; 24 h, read-out: Cytotoxicity IC50): 22 to 26 µM
30.9 ± 2.3	Cc1cc(-c2ccccc2)nn(CC(=O)Nc2ccc(Br)cc2)c1=O [Compound 67]	> 50		10.1	21.5	Inhibition of LPS-induced NF-κB activity (in words) ([2]; 250 ng/mL LPS, 24 h): active
39.4 ± 4.2	CCC(C(=O)Nc1ccc(Br)cc1)n1nc(C)cc(Cc2cccc(OC)c2)c1=O (stereo not shown) [Compound 88]	> 50		2.2	1.3	
39.2 ± 6.7	CCC(C)(C(=O)Nc1ccc(Br)cc1)n1nc(C)cc(Cc2cccc(OC)c2)c1=O (stereo not shown) [Compound 90]	> 50		2.1	1.5	
31.3 ± 1.6	CCCCOc1ccc(-c2c(OC)cnn(Cc3ccc(OC)cc3)c2=O)cc1 [Compound 109]	> 50	Active	> 50	> 50	
37 ± 0.4	COc1cccc(Cc2cc(C)nn(CCNC(=O)Nc3ccc(Br)cc3)c2=O)c1 [Compound 113]	> 50	Active			
46.3 ± 2.4	CC1CC(c2ccccc2)=NN(CC(=O)Nc2ccc(F)cc2)C1=O (stereo not shown) [Compound 122]	> 50		> 50	> 50	
42.7 ± 0.3	CC1CC(c2ccccc2)=NN(CC(=O)Nc2ccc(Br)cc2)C1=O (stereo not shown) [Compound 124]	> 50		10.7	19.5	
	COc1ccc2c(c1)c(CC(=O)Nc1ccc(Br)cc1)c(C)n2C(=O)c1ccc(Cl)cc1 [Compound 133]					Inhibition of LPS-induced NF-κB activity (in words) ([2]; 250 ng/mL LPS, 24 h): inactive
	COc1cccc(Cn2cc(CC(=O)Nc3ccc(Br)cc3)c3ccccc32)c1 [Compound 134]					Inhibition of LPS-induced NF-κB activity (in words) ([2]; 250 ng/mL LPS, 24 h): inactive
43 ± 3.9	Cc1ccc(-n2ccc(=O)n(CC(=O)Nc3ccc(Br)cc3)c2=O)cc1 [Compound 149]	> 50	Active	14.9	13.6	
	COc1cccc(-c2nn(CC(=O)Nc3ccc(Br)cc3)c(C)c2C#N)c1 [Compound 160]	> 50	Active	4.8	8.2	IC50 [2]: 28.8 ± 2 µM
43.4 ± 4.2	O=C(Cn1c(-c2ccc(Cl)cc2)csc1=O)Nc1ccc(Br)cc1 [Compound 168]	> 50	Active	2.4	2.8	
	N-formyl-Met-Leu-Phe [fMLF, reference compound]					Inhibition of LPS-induced IL-6 production (in words) [3]: did not affect; Inhibition of LPS-induced NF-κB activity (in words) ([2]; peptide at 5 nM): did not inhibit

Compound	IC50 ([2]; Homo sapiens) [µM]	IC50 at 24 h [1, 5] [µM]	Observed class for inhibition of NF-κB activity [2]	EC50 (FPR2) [µM]	EC50 (FPR1) [µM]	further results
COc1cccc(-c2cc(C#N)c(=O)n(CC(=O)Nc3ccc(Br)cc3)c2C)c1 [Compound 141]	15.3 ± 4.9	> 50	Active			IC50 [3]: 24.5 ± 0.8 µM; IC50 at 24 h [4]: > 50 µM
COc1ccc(Nc2c(C#N)cnn2CC(=O)Nc2ccc(Br)cc2)cc1 [Compound 156]	25 ± 0.4	> 50	Active	> 50	> 50	
COc1cccc(Nc2cn(-c3ccccc3)n(CC(=O)Nc3ccc(Br)cc3)c2=O)c1 [Compound 164]	35.7 ± 1.9	> 50	Active	> 50	29	
